Source: article PMC12186298, “Phase 1 clinical trial of eneboparatide, a novel PTH receptor 1 agonist” (Endocrine Connections, 2025)
Peptide text beside a SMILES is read from it.

Legend:
Assay type in all cases: in vivo, human
[1] = system: healthy subjects; test: Pharmacodynamics (serum calcium, phosphorus, endogenous PTH, urine, bone markers), Part B MAD
Protocol: (§1) Blood samples were taken on day 1 at pre-dose, at several time points post-dose up to day 4 and at FU (Part A), on day 1–14 (pre-dose), and day 15–17 and at FU (Part B) for the analysis of total sCa, albumin-adjusted serum calcium (ADsCa), and sPh. These parameters were also measured on day 1, 7 and 14 at several time points post-dose. Samples for serum creatinine were taken at predefined time points to allow for calculation of fractional excretion of calcium (FECa). Endogenous serum PTH(1–84) was measured on day 1 (pre-dose and 12 h post-dose), day 2–4 and at FU (Part A), on pre-dose on day 1, 7, and 14 and on day 15–17 and FU (Part B). In Part B, additional blood samples were taken on day 1, day 14 and at FU for the analysis of serum bone turnover biomarkers, including carboxy-terminal telopeptide of type I collagen (s-CTx), and procollagen type 1 amino-terminal propeptide (P1NP).
(§2) Urine collection was performed over 24 h for the analysis of calcium and creatinine on day 1–3 and at FU (Part A) and day 1, day 7, day 14 and at FU (Part B). FECa (%) was calculated by the formula: FECa = (urine calcium/serum calcium)/(urine creatinine/serum creatinine).

[2] = Plasma pharmacokinetics, single ascending dose (Part A); details: for AUC(0–∞) / Cmax / Tmax: Part A SAD; for Cmax: immunoaffinity LC-MS/MS, mean ± SD
Protocol: (§3) Seven sequential cohorts were included in Part A. The first cohort was single-blind and included four subjects, of which three subjects were randomized to receive 5 μg eneboparatide and one subject was randomized to receive placebo. […] Subjects in Part A were admitted to the phase 1 study centre on day 1 and received the study drug at the clinical site on day 1 as a single, subcutaneous abdominal injection in the morning. They were discharged on day 4 and were asked to return for a follow-up (FU) visit on day 5–8.
Plasma samples were collected pre-dose and at scheduled time points up to 6 h post-dose on day 1 (Parts A and B) and day 14 (Part B). The analysis of eneboparatide in plasma samples was performed at QPS (The Netherlands) using a hybrid immunoaffinity liquid chromatography–mass spectrometry/mass spectrometry (LC-MS/MS) method, with a validated lower limit of quantification (LLOQ) of 50 pg/mL.

[3] = system: healthy subjects; test: Pharmacodynamics (serum calcium, phosphorus, endogenous PTH, urine), Part A SAD
Protocol: as §3, §1, §2

Structure (SMILES): CC[C@H](C)[C@H](NC(=O)[C@H](CCC(=O)O)NC(=O)[C@H](C)NC(=O)[C@@H](NC(=O)[C@H](Cc1c[nH]cn1)NC(=O)[C@@H](NC(=O)[C@H](CCC(=O)O)NC(=O)[C@H](C)NC(=O)[C@@H](NC(=O)[C@H](CC(C)C)NC(=O)[C@H](CCCCN)NC(=O)[C@H](Cc1c[nH]cn1)NC(=O)[C@H](CC(C)C)NC(=O)[C@H](Cc1ccccc1)NC(=O)[C@H](C)NC(=O)[C@H](CCCNC(=N)N)NC(=O)[C@H](CCCNC(=N)N)NC(=O)[C@H](CCCNC(=N)N)NC(=O)[C@H](C)NC(=O)[C@H](CC(=O)O)NC(=O)[C@H](CCC(N)=O)NC(=O)[C@@H](NC(=O)[C@H](Cc1c[nH]c2ccccc12)NC(=O)[C@H](CCCCN)NC(=O)[C@H](C)NC(=O)[C@H](CCCNC(=N)N)NC(=O)[C@H](CCC(N)=O)NC(=O)[C@H](Cc1c[nH]cn1)NC(=O)[C@H](CCSC)NC(=O)[C@H](CC(C)C)NC(=O)[C@H](CCC(N)=O)NC(=O)[C@@H](NC(=O)[C@H](CCC(=O)O)NC(=O)[C@H](C)NC(=O)[C@@H](NC(=O)[C@H](C)N)C(C)C)[C@@H](C)CC)[C@@H](C)CC)[C@@H](C)CC)[C@@H](C)CC)[C@@H](C)O)C(=O)O [eneboparatide] (H-AVAEIQLMHQRAKWIQDARRRAFLHKLIAEIHTAEI-OH; N-terminus and C-terminus assumed)
- endogenous sPTH compared to placebo [1]: rapidly and dose-dependently declined
- time for ADsCa to return to near baseline after cessation of treatment ([1]; 80 μg dose): ~3 days
- subjects with transient hypercalcaemia in whom urinary excretion of calcium remained normal ([1]; 80 μg/d): five of the six
- mean 24 h-uCa ([1]; 14 days of treatment): not associated with an increase
- time mean sPh remained lower compared to placebo ([1]; after 14 days of treatment, high-dose groups (above 40 μg/day)): 12 to 20 h
- FECa ([1]; all doses): below 1.5%
- repeated sCa measurements throughout 24 h post-dosing ([1]; days 7 and 14, all doses): stable values with little variation
- time for ADsCa to return to near baseline after cessation of treatment ([1]; doses up to 60 μg): approximately 2 days
- time to stable ADsCa levels after the first administration ([1]; doses up to 60 μg): approximately 2 days
- serum levels of P1NP and CTX ([1]; increasing doses for 14 consecutive days): did not alter
- AUC(0–∞) ([2]; single sc 5 μg, n = 2, mean ± SD): 0.399 ± 0.032 ng·h/mL
- Cmax ([2]; single sc 5 μg, n = 2, plasma): 6.82 ± 2.19 ng/mL
- AUC(0–∞) ([2]; single sc 10 μg, n = 4, mean ± SD): 5.20 ± 3.38 ng·h/mL
- Cmax ([2]; single sc 10 μg, n = 4, plasma): 11.4 ± 4.32 ng/mL
- AUC(0–∞) ([2]; single sc 20 μg, n = 6, mean ± SD): 9.55 ± 4.12 ng·h/mL
- Cmax ([2]; single sc 20 μg, n = 6, plasma): 24.1 ± 8.18 ng/mL
- AUC(0–∞) ([2]; single sc 40 μg, n = 2, mean ± SD): 10.4 ± 13.4 (n = 2) ng·h/mL
- Cmax ([2]; single sc 40 μg, n = 3, plasma): 26.3 ± 4.79 ng/mL
- AUC(0–∞) ([2]; single sc 60 μg, n = 6, mean ± SD): 16.8 ± 14.7 ng·h/mL
- Cmax ([2]; single sc 60 μg, n = 6, plasma): 28.5 ± 10.8 ng/mL
- AUC(0–∞) ([2]; single sc 90 μg, n = 6, mean ± SD): 31.7 ± 12.5 ng·h/mL
- Cmax ([2]; single sc 90 μg, n = 6, plasma): 37.5 ± 11.6 ng/mL
- AUC(0–∞) ([2]; single sc 120 μg, n = 6, mean ± SD): 26.1 ± 16.4 ng·h/mL
- Cmax ([2]; single sc 120 μg, n = 6, plasma): 57.4 ± 28.7 ng/mL
- median time to maximum plasma concentration ([2]; Parts A and B, sc, all doses): 5 to 20 min
- detectability of eneboparatide in the circulation after administration ([2]; SAD, single sc 10 to 120 μg, LLOQ 50 pg/mL): almost undetectable beyond 2 h after administration
- Tmax ([2]; human, plasma, 5 ug, single sc 5 μg, n = 2, median): 15 min
- Tmax ([2]; human, plasma, 10 ug, single sc 10 μg, n = 4, median): 13.2 min
- Tmax ([2]; human, plasma, 20 ug, single sc 20 μg, n = 6, median): 6 min
- Tmax ([2]; human, plasma, 40 ug, single sc 40 μg, n = 3, median): 4.8 min
- Tmax ([2]; human, plasma, 60 ug, single sc 60 μg, n = 6, median): 10.2 min
- Tmax ([2]; human, plasma, 90 ug, single sc 90 μg, n = 6, median): 19.8 min
- Tmax ([2]; human, plasma, 120 ug, single sc 120 μg, n = 6, median): 19.8 min
- half-life ([2]; human, plasma, normal subjects, sc, read-out: circulating half-life): < 120 min
- urinary excretion of calcium or phosphorus ([3]; increasing single doses): no apparent dose-related changes
- duration of elevation of ADsCa post-dose vs placebo ([3]; single sc 20 μg, moderate but persistent elevation): up to 18 h
- effect on physiological decline in ADsCa ([3]; single sc 5 and 10 μg): blunted this physiological decline in ADsCa during the first 6 h post-dosing
- persistence of dose-dependent decrease of endogenous sPTH(1–84) ([3]; single sc 20–120 μg): 24 to 72 h
